Results: PMC10488193, “Evaluation of the Chemical Stability, Membrane Permeability and Antiproliferative Activity of Cyclic Diarylheptanoids from European Hornbeam (Carpinus betulus L.)” (International Journal of Molecular Sciences, 2023)
Entries after “also recorded” stand apart in the source; their conditions may differ. Marks after values point to notes of the source that are not given here.

What was measured:
[1] = Aqueous stability at biorelevant pH values, 37 °C (UHPLC-DAD); assay type: physicochemical
Protocol: (§1) For the analysis of the samples from the chemical stability as well as the PAMPA studies, sample concentrations were determined using our previously developed ultrahigh-performance liquid chromatography–diode array detection (UHPLC-DAD) method validated for linearity, precision and accuracy. Briefly, an ACQUITY UPLC H-Class PLUS System hyphenated with a quaternary solvent delivery pump (QSM), an auto-sampler manager (FTN), a column compartment (CM) and a photodiode array (PDA) detector (Waters Corporation) was employed. Stationary phase: Acquity BEH C18 column (100 × 2.1 mm i.d., 1.7 µm; Waters Corporation), column temperature: 30 °C. The mobile phase consisted of 0.3% acetic acid in water (eluent A) and acetonitrile (eluent B). The following gradient elution was applied at a flow rate of 0.3 mL/min: 0 min 12.0% B, 19.0 min 13.5% B, 25.5 min 75.0% B, 26.0 min 100.0% B, 28.0 min 100.0% B, 28.5 min 12.0% B.
The buffers modelling the gastric fluid (pH 1.2), the intestinal fluid (pH 6.8) and the blood and the tissues (pH 7.4) were prepared as follows. Buffer pH = 1.2: 1.0 g NaCl and 3.5 mL HCl dissolved in distilled water, final volume: 500.0 mL. Buffer pH = 6.8: 20.2 g Na2HPO4∙7H2O and 3.4 g NaH2PO4∙H2O dissolved in distilled water, final volume: 1000.0 mL, pH adjustment with 0.5 M NaOH or 0.5 M HCl. Buffer pH = 7.4: one PBS tablet dissolved in 200.0 mL distilled water. The stock solutions of compounds 1–4 were prepared with dimethyl sulfoxide (DMSO) at a concentration of 10.0 mM. The stock solutions were diluted 100-fold with each buffer separately to obtain the working solutions (297.0 μL buffer + 3.0 μL stock solution). All working solutions were filtered through Phenex-RC 15 mm, 0.2 μm syringe filters (Gen-Lab Ltd., Budapest, Hungary). The samples were incubated for 81 h at 37 °C; aliquots were taken for analysis every 9 h in accordance with the time required to quantify the analytes of interest in one set of samples. The total incubation time of 81 h was applied to obtain data for ten measurement points. The previously described UHPLC-DAD method was used to examine the changes in compound concentrations (see Section 3.4).
For the determination of pH stability, the initial AUC values were compared with the data after 9 and 81 h using paired-sample t test; significant difference was reported at p < 0.05. The effects of the pH were analysed through one-way analysis of variance (ANOVA) followed by Tukey’s post hoc HSD test (p < 0.05). All experiments were performed in triplicates (n = 3).
(§2) We used the following equations to calculate the first-order reaction rate constant (k) and the half-life (t1/2) indicating the time required to reduce the concentration of diarylheptanoids by 50% [29]:ln (ct/c0) = −k × t(1) t1/2 = −ln 0.5 × k^−1(2) where ct is the concentration of the diarylheptanoids at time t, c0 is the initial concentration, k is the reaction rate constant, t is the treatment time.

[2] = Storage stability in solutions and hornbeam bark extracts (UHPLC-DAD); assay type: physicochemical
Protocol: as §1, §2
The chemical stability of the isolated compounds in solutions was examined at a concentration of 50 µg/mL in methanol and water (in the latter case using methanol as co-solvent, final composition: water-methanol 90:10, v/v). Furthermore, the methanol and ethyl acetate extracts of C. betulus bark (concentration 4 mg/mL) were also studied in order to assess the effects of the accompanying substances. The storage stability studies were performed at a neutral pH value. All solutions were filtered through Phenex-RC 15 mm, 0.2 μm syringe filters (Gen-Lab Ltd., Budapest, Hungary). The samples were prepared in triplicate and stored protected from light at 22 ± 2.0 °C, 5 ± 1.5 °C and −15 ± 2.0 °C for 23 weeks. Quantities of the analytes of interest were quantified at weeks 12 and 23 using the abovementioned UHPLC-DAD method (see Section 3.4).
The effects of the temperature and the medium (i.e., solvent and accompanying substances) were analysed through one-way analysis of variance (ANOVA) followed by Tukey’s post hoc HSD test (p < 0.05). To establish the kinetic parameters t1/2 and k, Equations (1) and (2) were applied, respectively.

In the case of `O=C1CCc2ccc(O)c(c2)-c2cc(ccc2O)C[C@H](O)[C@H](O)[C@H]1O` [Compound 2, carpinontriol B], the “aqueous stability at pH 1.2, 6.8, 7.4 (in words)” value ([1]; 37 °C, up to 81 h) is reported as “remained intact for the whole study at all pH values; also recorded: stable at all three studied biorelevant pH values”, the “relative concentration compared to the initial value” (shortened to “relative concentration”) ([1]; 9 h, pH 1.2, 37 °C) is reported as 101.7 ± 4.2 ^a % and the “relative concentration” value ([1]; 9 h, pH 6.8, 37 °C) is reported as 105.2 ± 3.9 ^a %. The “relative concentration” value ([1]; 9 h, pH 7.4, 37 °C) was 102.0 ± 0.9 ^a %, the “relative concentration” value ([1]; 81 h, pH 1.2, 37 °C) was 100.7 ± 5.1 ^a % and the “relative concentration” value ([1]; 81 h, pH 6.8, 37 °C) was 101.9 ± 6.4 ^a %. The “relative concentration” value ([1]; 81 h, pH 7.4, 37 °C) was 101.5 ± 1.1 ^a %, the “concentration as compared to the initial value” ([2]; 12 weeks, 5 °C, EE (ethyl acetate extract of bark)) was 99.5 ± 0.4 ^#a % and the “concentration as compared to the initial value” ([2]; 12 weeks, 5 °C, EM (methanol extract of bark)) was 99.9 ± 0.8 ^a %. For the same compound, the “concentration as compared to the initial value” ([2]; 12 weeks, 5 °C, SA (aqueous solution)) was 99.9 ± 0.4 ^a %, the “concentration as compared to the initial value” ([2]; 12 weeks, 5 °C, SM (methanol solution)) was 99.4 ± 0.6 ^a % and the “concentration as compared to the initial value” ([2]; 12 weeks, 22 °C, EE (ethyl acetate extract of bark)) was 100.2 ± 0.7 ^a %. The “concentration as compared to the initial value” ([2]; 12 weeks, 22 °C, EM (methanol extract of bark)) was 101.1 ± 1.1 ^a %, the “concentration as compared to the initial value” ([2]; 12 weeks, 22 °C, SA (aqueous solution)) was 100.4 ± 1.1 ^a % and the “concentration as compared to the initial value” ([2]; 12 weeks, 22 °C, SM (methanol solution)) was 99.7 ± 0.4 ^a %. For the same compound, the “concentration as compared to the initial value” ([2]; 12 weeks, −15 °C, EE (ethyl acetate extract of bark)) was 100.1 ± 0.7 ^a %, the “concentration as compared to the initial value” ([2]; 12 weeks, −15 °C, EM (methanol extract of bark)) was 99.8 ± 0.7 ^a % and the “concentration as compared to the initial value” ([2]; 12 weeks, −15 °C, SA (aqueous solution)) was 99.1 ± 1.3 ^a %. The “concentration as compared to the initial value” ([2]; 12 weeks, −15 °C, SM (methanol solution)) was 99.1 ± 1.3 ^a %, the “concentration as compared to the initial value” ([2]; 23 weeks, 5 °C, EE (ethyl acetate extract of bark)) was 100.1 ± 0.4 ^a % and the “concentration as compared to the initial value” ([2]; 23 weeks, 5 °C, EM (methanol extract of bark)) was 99.2 ± 1.2 ^a %. For the same compound, the “concentration as compared to the initial value” ([2]; 23 weeks, 5 °C, SA (aqueous solution)) was 99.9 ± 0.5 ^a %, the “concentration as compared to the initial value” ([2]; 23 weeks, 5 °C, SM (methanol solution)) was 99.2 ± 0.5 ^a % and the “concentration as compared to the initial value” ([2]; 23 weeks, 22 °C, EE (ethyl acetate extract of bark)) was 99.7 ± 0.5 ^a %. For the same compound, the “concentration as compared to the initial value” ([2]; 23 weeks, 22 °C, EM (methanol extract of bark)) was 99.7 ± 0.3 ^#a %, the “concentration as compared to the initial value” ([2]; 23 weeks, 22 °C, SA (aqueous solution)) was 99.8 ± 0.9 ^a % and the “concentration as compared to the initial value” ([2]; 23 weeks, 22 °C, SM (methanol solution)) was 99.9 ± 0.6 ^a %. For the same compound, the “concentration as compared to the initial value” ([2]; 23 weeks, −15 °C, EE (ethyl acetate extract of bark)) was 99.8 ± 0.4 ^a %, the “concentration as compared to the initial value” ([2]; 23 weeks, −15 °C, EM (methanol extract of bark)) was 99.6 ± 0.7 ^a % and the “concentration as compared to the initial value” ([2]; 23 weeks, −15 °C, SA (aqueous solution)) was 99.1 ± 1.2 ^a %. The “concentration as compared to the initial value” ([2]; 23 weeks, −15 °C, SM (methanol solution)) was 99.1 ± 1.2 ^a % and the “storage stability in methanol and aqueous solutions (in words)” value ([2]; SM and SA, −15, 5, 22 °C, weeks 12 and 23) was “stable; also recorded: good stability”.
